Legend:
Type in all cases: in vivo
[1] = test system: Rhipicephalus microplus; assay: Rhipicephalus (Boophilus) microplus injection test (BOOPMI Inj); conditions: 168 h, injection into adult engorged female ticks, egg deposition after 7 days, read-out: activity (efficacy: 100% means all eggs are infertile); for pest or weed control at 0.004 mg: application rate 4 μg/tick; for pest or weed control at 0.02 mg: application rate 20 μg/tick
Procedure, shortened: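 Compound in DMSO, 1 μL, injected abdominally into five adult engorged females, which were then held in a climate chamber. Read-out is egg fertility, scored from deposition at 7 days, with unclear eggs followed to hatching (~42 days); 0% means all eggs fertile, 100% all infertile.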

[2] = test system: Rhipicephalus microplus; assay: Rhipicephalus (Boophilus) microplus in-vitro contact test, larval cattle tick, strain Parkhurst (BOOPMI Cont); conditions: application rate 5 μg/cm^2 (=500 g/ha), tick larvae, after 48 hours, read-out: activity (efficacy: 100% means all larvae are dead or moribund)
Procedure, shortened: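 After 48 h at 27° C. and 85% humidity, percent dead or moribund larvae was scored from negative geotactic behaviour. Larvae (20-50, Parkhurst strain, synthetic pyrethroid-resistant) were exposed in tubes coated with compound from acetone, 900 ppm corresponding to 5 μg/cm^2.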

[3] = test system: Ctenocephalides felis; assay: Ctenocephalides felis in-vitro contact test, adult cat flea (CTECFE Cont); conditions: application rate 5 μg/cm^2 (=500 g/ha), adult cat fleas, after 48 hours, read-out: activity (efficacy: 100% means all fleas are dead or moribund)
Protocol: Ctenocephalides felis—In-Vitro Contact Tests Adult Cat Flea (CTECFE Cont)
9 mg compound is solved in 1 mL acetone and diluted with acetone to the desired concentration. 250 μL of the test solution is filled in 25 mL glass test tubes and homogeneously distributed on the inner walls by rotation and tilting on a shaking device (2 h at 30 rpm). With a compound concentration of 900 ppm, an inner surface of 44.7 cm^2 and a homogeneous distribution, a dose of 5 μg/cm^2 is achieved.
After the solvent has evaporated, each test tube is filled with 5-10 adult cat fleas (Ctenocephalides felis), closed with a perforated lid and incubated in a lying position at room temperature and relative humidity. After 48 hours efficacy is determined. The fleas are patted on the ground of the tubes and are incubated on a heating plate at 45-50° C. for at most 5 minutes. Immotile or uncoordinated moving fleas, which are not able to escape the heat by climbing upwards, are marked as dead or moribund.
An efficacy of 100% means all fleas are dead or moribund; 0% means no fleas are dead or moribund.

[4] = test system: Diabrotica balteata; assay: Diabrotica balteata spray test; conditions: 168 h, wheat seeds, larvae, after 7 days, read-out: activity (efficacy: 100% means all seedlings have grown up like in the untreated, uninfected control); for pest or weed control at 32 µg/disc, 100 g/ha: application rate 100 g/ha (=32 μg/well); for pest or weed control at 160 µg/disc, 500 g/ha: application rate 500 g/ha (=160 μg/well)
Procedure, shortened: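 Efficacy (%) was scored 7 days after spraying, with 100% meaning growth like the untreated, uninfected control and 0% meaning no seedling grew. Spray solutions of compound in acetone/DMF with emulsifier-containing water went onto 1-day-germinated wheat seeds, and each unit was then infested with 10-20 banded cucumber beetle larvae.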

[5] = test system: Myzus persicae; assay: Myzus persicae oral test; conditions: 120 h, read-out: activity (mortality)
Procedure, shortened: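 Percent mortality was recorded at day 5, where 0% means no aphids killed. Compound prepared from an acetone concentrate diluted in water and combined with IPL41 medium containing sugar was offered to mixed-stage green peach aphids, which sucked it through a parafilm seal.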

[6] = test system: Spodoptera frugiperda; assay: Spodoptera frugiperda spray test; conditions: in Zea mays, 168 h, read-out: activity (mortality)
Procedure, shortened: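 Percent kill of fall armyworm caterpillars was assessed 7 days after infesting dried, treated maize leaf sections. Treatment was a spray of compound in acetone/dimethylformamide, diluted with water containing emulsifier at 1000 ppm.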

[7] = test system: Aedes aegypti strain MONHEIM; assay: Aedes aegypti test (AEDSAE surface treatment & contact assay); conditions: exposure 30 minutes, 24 hours after contact, read-out: efficacy (mortality); for mortality at 4 mg/m2: surface concentration 4 mg/m^2, glazed tile; for mortality at 20 mg/m2: surface concentration 20 mg/m^2, glazed tile
Procedure, shortened: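 Compound dissolved in acetone (2 mg/ml) with 2000 ppm rapeseed oil methyl ester, pipetted onto glazed tile and dried. Adult mosquitoes exposed on the surface for 30 min; percent mortality scored 24 h after contact.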

[8] = test system: Musca domestica strain WHO—N; assay: Musca domestica test (MUSCDO surface treatment & contact assay); conditions: exposure 30 minutes, 24 hours after contact, read-out: efficacy (mortality); for mortality at 4 mg/m2: surface concentration 4 mg/m^2, glazed tile; for mortality at 20 mg/m2: surface concentration 20 mg/m^2, glazed tile
Protocol: Musca domestica Test (MUSCDO Surface Treatment & Contact Assay) Solvent: Aceton+2000 ppm rapeseed oil methyl ester (RME)
In order to produce a sufficient, active ingredient containing solution it is necessary to solve the test compound in the solvent-mix (acetone at 2 mg/ml/RME 2000 ppm). This solution is pipetted onto a glazed tile and after evaporation of the acetone, adult flies of the species Musca domestica strain WHO—N are placed onto the dried surface. The exposure time is 30 minutes. Mortality in percent (%) is determined 24 hours after contact of the insects to the treated surface. 100% mortality means that all tested insects are dead, whereas 0% means that no insect died.

[9] = test system: Ctenocephalides felis; assay: Ctenocephalides felis oral test (CTECFE Oral); conditions: 48 h, read-out: activity (mortality)
Procedure, shortened: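 Percent mortality was recorded 2 days after roughly 20 adult Ctenocephalides felis fed on treated cattle blood. The blood was warmed to 37 °C beneath a parafilm membrane, with the fleas kept at room temperature. Compound was dissolved in DMSO and diluted into the blood to test concentration.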

[10] = test system: Rhipicephalus sanguineus; assay: Rhipicephalus sanguineus in-vitro contact test, adult brown dog ticks (RHIPSA Cont); conditions: 48 h, after 48 hours, read-out: activity (efficacy: 100% means all ticks are dead or moribund); for pest or weed control at 1 µg/cm2, 100 g/ha: application rate 1 μg/cm^2 (=100 g/ha); for pest or weed control at 5 µg/cm2, 500 g/ha: application rate 5 μg/cm^2 (=500 g/ha)
Procedure, shortened: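 Compound in acetone (9 mg/mL stock, diluted to test concentration) is coated onto inner walls of glass tubes by rotation for 2 h at 30 rpm. Efficacy is read after 48 h: ticks are tapped down and held on a 45-50° C plate for at most 5 min, and immotile or uncoordinated ones that fail to climb away count as dead or moribund.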

Row | SMILES | pest or weed control at 0.004 mg [1] | pest or weed control at 0.02 mg [1] | pest or weed control at 5 µg/cm2 [2] | pest or weed control at 5 µg/cm2 [3] | pest or weed control at 32 µg/disc, 100 g/ha [4] | pest or weed control at 160 µg/disc, 500 g/ha [4] | mortality at 4 ppm [5] | mortality at 100 g/ha [6] | mortality at 500 g/ha [6] | mortality at 4 mg/m2 [7] | mortality at 20 mg/m2 [7] | mortality at 4 mg/m2 [8] | mortality at 20 mg/m2 [8] | mortality at 100 ppm [9] | pest or weed control at 1 µg/cm2, 100 g/ha [10] | pest or weed control at 5 µg/cm2, 500 g/ha [10] | mortality at 0.8 ppm [5]
1 | CCc1nc([C@H](C)NC(=O)c2cc(Cl)cc(C(F)(F)F)c2)n(-c2ccc(C#N)cn2)n1 [I-3] | 100% | 100% | 100% | 100% | 100% | 100% | 90% | 100% | 100% | 80 to 100% | 80 to 100% | 80 to 100% | 80 to 100% |  |  |  | 
2 | CC(C)c1nc([C@H](C)NC(=O)c2cc(Br)cc(C(F)(F)F)n2)n(-c2ccc(C#N)cn2)n1 [I-20] |  |  |  | 80% |  |  |  |  |  |  |  |  |  |  |  |  | 
3 | CC(C)c1nc([C@H](C)NC(=O)c2cc(Br)cc(Br)c2)n(-c2ccc(C#N)cn2)n1 [I-24] | 100% | 100% | 100% | 80% | 100% |  |  | 100% |  |  |  |  |  | 100% | 100% | 100% | 
4 | COc1nc([C@H](C)NC(=O)c2cc(Br)cc(Br)c2)n(-c2ccc(C#N)cn2)n1 [I-61] | 100% |  | 100% | 80% | 100% |  | 100% | 100% |  |  |  |  |  |  | 100% | 100% | 
5 | CC(C)N(C(=O)c1ccc(-n2ncnc2[C@H](C)NC(=O)c2cc(Cl)cc(C(F)(F)F)c2)nc1)C1CC1 [II-29] | 100% | 100% | 100% | 100% | 100% | 100% |  | 83% | 100% | 80 to 100% | 80 to 100% |  |  | 100% | 100% | 100% | 
6 | C[C@H](NC(=O)c1cc(Cl)cc(OC(F)(F)F)c1)c1ncnn1-c1cc(C#N)ccn1 [II-33] | 100% | 100% | 100% | 90% | 100% | 100% | 100% | 100% | 100% | 80 to 100% | 80 to 100% | 80 to 100% | 80 to 100% |  | 80% | 80% | 
7 | CCN(CC)C(=O)c1ccnc(-n2ncnc2[C@H](C)NC(=O)c2cc(C(F)(F)F)cc(C(F)(F)F)c2)c1 [II-85] |  |  | 100% | 100% | 100% |  | 100% | 83% |  |  |  |  |  |  | 100% | 100% | 
8 | C[C@H](NC(=O)c1cc(C(F)(F)F)cc(C(F)(F)F)c1)c1ncnn1-c1cc(C(=O)N(C)C)ccn1 [II-86] |  |  | 100% | 100% | 100% |  | 100% | 100% |  |  |  |  |  | 100% | 100% | 80% | 100%
9 | C[C@H](NC(=O)c1cc(C(F)(F)F)cc(C(F)(F)F)c1)c1ncnn1-c1cc(C(=O)N(C)CC(F)(F)F)ccn1 [II-88] |  |  | 100% | 100% | 100% |  | 100% | 100% |  |  |  |  |  |  |  |  | 
10 | CC(C)CNC(=O)c1ccnc(-n2ncnc2[C@H](C)NC(=O)c2cc(C(F)(F)F)cc(C(F)(F)F)c2)c1 [II-90] |  |  | 100% | 80% |  |  | 100% | 83% |  |  |  |  |  |  |  |  | 
11 | C[C@H](NC(=O)c1cc(Cl)cc(C(F)(F)F)c1)c1ncnn1-c1cc(-n2ccnc2)ccn1 [II-102] | 100% |  | 90% | 80% |  |  |  |  |  |  |  |  |  | 100% |  |  | 
12 | C[C@H](NC(=O)c1cc(Br)cc(I)c1)c1ncnn1-c1ccc(C#N)cn1 [II-112] | 100% |  | 100% | 80% | 100% |  |  | 100% |  |  |  |  |  | 100% | 100% | 100% | 

— patent US20220274947A1, “NOVEL HETEROARYL-TRIAZOLE COMPOUNDS AS PESTICIDES” (Bayer Aktiengesellschaft, priority 2019, published 2022)
